# Values of other authors as cited in PMC10703426, “New characterization of dihydroergotamine receptor pharmacology in the context of migraine: utilization of a β-arrestin recruitment assay” (Frontiers in Neurology, 2023).
# Tested on: 5-HT1D
# Set-up: method as in doi:10.1186/1129-2377-14-S1-P75
# Conditions: cited from earlier work
structure (smiles),measurement,value
CNS(=O)(=O)Cc1ccc2[nH]cc(CCN(C)C)c2c1 [sumatriptan succinate],dissociation half-life,5.4 min
